From patent US12617798B2, “Imidazopyrazne derivatives” (Hoffmann-La Roche Inc., priority 2020, dated 2026)
Counter-ions that a name gives are not always drawn.

Experiments:
[1] = test system: Acinetobacter baumannii ATCC17961; experiment: Antimicrobial susceptibility testing, 90% growth inhibitory concentration (IC90) determination; type: cell-based; conditions: Iso-Sensitest broth, OD 600 nm over 16 h, 35±2° C., read-out: ATCC 17961 IC90
Description: (§1) 90% Growth Inhibitory Concentration (IC90) Determination The in vitro antimicrobial activity of the compounds was determined according to the following procedure: The assay used a 10-points Iso-Sensitest broth medium to measure quantitatively the in vitro activity of the compounds against Acinetobacter baumannii ATCC17961 and Pseudomonas aeruginosa ATCC27853. Stock compounds in DMSO were serially twofold diluted (e.g. range from 50 to 0.097 μM final concentration) in 384 wells microtiter plates and inoculated with 49 μl the bacterial suspension in Iso-Sensitest medium to have a final cell concentration of ˜5×10^(5) CFU/ml in a final volume/well of 50 ul/well. Microtiter plates were incubated at 35±2° C. Bacterial cell growth was determined with the measurement of optical density at λ=600 nm each 20 minutes over a time course of 16 h. Growth inhibition was calculated during the logarithmic growth of the bacterial cells with determination of the concentration inhibiting 50% (IC50) and 90% (IC90) of the growth. Table 1 provides the 90% growth inhibitory concentrations (IC90) in micromoles per liter of the compounds of present invention obtained against the strain Acinetobacter baumannii ATCC17961.

[2] = test system: Pseudomonas aeruginosa ATCC27853; experiment: as above; type: cell-based; conditions: Iso-Sensitest broth, OD 600 nm over 16 h, 35±2° C., read-out: ATCC 27853 IC90
Description: as §1, with “Table 2” for “Table 1”, “strain Pseudomonas aeruginosa ATCC27853.” for “strain Acinetobacter baumannii ATCC17961.”

Row | IC90 [1] | IC90 [2] | Compound
1 | 47 nM | 160 nM | CCc1cc(Nc2nccn3c(-c4ccc(-c5c[nH]nc5C)c(F)c4F)cnc23)ccc1C(=O)NCC1CCN(CC2CNC2)CC1 [Example A1, N-[[1-(Azetidin-3-ylmethyl)-4-piperidyl]methyl]-4-[[3-[2,3-difluoro-4-(3-methyl-1H-pyrazol-4-yl)phenyl]imidazo[1,2-a]pyrazin-8-yl]amino]-2-ethyl-benzamide; formic acid]
2 | 50 nM | 98 nM | CCc1cc(Nc2nccn3c(-c4ccc(-c5c[nH]nc5C)c(F)c4F)cnc23)ccc1C(=O)NCC1CC[N+](C)(CC2CNC2)CC1 (stereo not shown) [Example A2, N-[[1-(Azetidin-3-ylmethyl)-1-methyl-piperidin-1-ium-4-yl]methyl]-4-[[3-[2,3-difluoro-4-(3-methyl-1H-pyrazol-4-yl)phenyl]imidazo[1,2-a]pyrazin-8-yl]amino]-2-ethyl-benzamide; formic acid; formate]
3 | 340 nM | 1800 nM | CCc1cc(Nc2nccn3c(-c4ccc(-c5c[nH]nc5C)c(F)c4F)cnc23)ccc1C(=O)NCC1CCN(CC(=O)O)CC1 [Example A3, 2-[4-[[[4-[[3-[2,3-difluoro-4-(3-methyl-1H-pyrazol-4-yl)phenyl]imidazo[1,2-a]pyrazin-8-yl]amino]-2-ethyl-benzoyl]amino]methyl]-1-piperidyl]acetic acid]
4 | 310 nM | 1200 nM | CCc1cc(Nc2nccn3c(-c4ccc(-c5c[nH]nc5C)c(F)c4F)cnc23)ccc1C(=O)NCC1CC[N+](C)(CC(=O)O)CC1 (stereo not shown) [Example A4, 2-[4-[[[4-[[3-[2,3-difluoro-4-(3-methyl-1H-pyrazol-4-yl)phenyl]imidazo[1,2-a]pyrazin-8-yl]amino]-2-ethyl-benzoyl]amino]methyl]-1-methyl-piperidin-1-ium-1-yl]acetic acid; formate]
5 | 150 nM | 240 nM | CCc1cc(Nc2nccn3c(-c4ccc(-c5c[nH]nc5C)c(F)c4F)cnc23)ccc1C(=O)NCC1CC[N+](CC(=O)O)(CC2CNC2)CC1 (stereo not shown) [Example A5, 2-[1-(azetidin-3-ylmethyl)-4-[[[4-[[3-[2,3-difluoro-4-(3-methyl-1H-pyrazol-4-yl)phenyl]imidazo[1,2-a]pyrazin-8-yl]amino]-2-ethyl-benzoyl]amino]methyl]piperidin-1-ium-1-yl]acetic acid; formic acid; formate]
6 | 280 nM | 430 nM | CCc1cc(Nc2nccn3c(-c4ccc(-c5c[nH]nc5C(F)(F)F)c(F)c4F)cnc23)ccc1C(=O)NCC1CCN(CC2CNC2)CC1 [Example A12, N-[[1-(azetidin-3-ylmethyl)-4-piperidyl]methyl]-4-[[3-[2,3-difluoro-4-[3-(trifluoromethyl)-1H-pyrazol-4-yl]phenyl]imidazo[1,2-a]pyrazin-8-yl]amino]-2-ethyl-benzamide; formic acid]
7 | 1100 nM | 120 nM | CCc1cc(Nc2nccn3c(-c4ccc(-c5c[nH]nc5C)nc4F)cnc23)ccc1C(=O)NCC1CC[N+](C)(CC2CNC2)CC1 (stereo not shown) [Example B1, N-[[1-(Azetidin-3-ylmethyl)-1-methyl-piperidin-1-ium-4-yl]methyl]-2-ethyl-4-[[3-[2-fluoro-6-(3-methyl-1H-pyrazol-4-yl)-3-pyridyl]imidazo[1,2-a]pyrazin-8-yl]amino]benzamide; formic acid; formate]
8 | 430 nM | 98 nM | CCc1cc(Nc2nccn3c(-c4ccc(-c5c(C)n[nH]c5C)nc4F)cnc23)ccc1C(=O)NCC1CC[N+](C)(CC2CNC2)CC1 (stereo not shown) [Example B4, N-[[1-(azetidin-3-ylmethyl)-1-methyl-piperidin-1-ium-4-yl]methyl]-4-[[3-[6-(3,5-dimethyl-1H-pyrazol-4-yl)-2-fluoro-3-pyridyl]imidazo[1,2-a]pyrazin-8-yl]amino]-2-ethyl-benzamide; formic acid; formate]
9 | 100 nM | 98 nM | CCc1cc(Nc2nccn3c(-c4ccc(-c5c[nH]nc5C)cc4)cnc23)ccc1C(=O)NCC1CC[N+](C)(CC2CNC2)CC1 (stereo not shown) [Example B5, N-[[1-(azetidin-3-ylmethyl)-1-methyl-piperidin-1-ium-4-yl]methyl]-2-ethyl-4-[[3-[4-(3-methyl-1H-pyrazol-4-yl)phenyl]imidazo[1,2-a]pyrazin-8-yl]amino]benzamide; formic acid; formate]
10 | 160 nM | 250 nM | CCc1cc(Nc2nccn3c(-c4ccc(-c5c[nH]nc5C(F)(F)F)c(F)c4F)cnc23)ccc1C(=O)NCC1CC[N+](C)(CC2CNC2)CC1 (stereo not shown) [Example B6, N-[[1-(azetidin-3-ylmethyl)-1-methyl-piperidin-1-ium-4-yl]methyl]-4-[[3-[2,3-difluoro-4-[3-(trifluoromethyl)-1H-pyrazol-4-yl]phenyl]imidazo[1,2-a]pyrazin-8-yl]amino]-2-ethyl-benzamide; formic acid; formate]
11 | 270 nM | 1000 nM | CCc1cc(Nc2nccn3c(-c4ccc(-c5cn(CCOC)nc5C)c(F)c4F)cnc23)ccc1C(=O)NCC1CC[N+](C)(C)CC1 [Example C1, 4-[[3-[2,3-Difluoro-4-[1-(2-methoxyethyl)-3-methyl-pyrazol-4-yl]phenyl]imidazo[1,2-a]pyrazin-8-yl]amino]-N-[(1,1-dimethylpiperidin-1-ium-4-yl)methyl]-2-ethyl-benzamide; formate]
12 | 290 nM | 1200 nM | CCc1cc(Nc2nccn3c(-c4ccc(-c5cn(CCOC)nc5C)c(F)c4F)cnc23)ccc1C(=O)NCC1CC[N+](C)(CC(N)=O)CC1 (stereo not shown) [Example C2, N-[[1-(2-amino-2-oxo-ethyl)-1-methyl - piperidin-1-ium-4-yl]methyl]-4-[[3-[2,3-difluoro-4-[1-(2-methoxyethyl)-3-methyl-pyrazol-4-yl]phenyl]imidazo[1,2-a]pyrazin-8-yl]amino]-2-ethyl-benzamide; formate]
13 | 430 nM | 1600 nM | CCc1cc(Nc2nccn3c(-c4ccc(-c5cn(CCOC)nc5C)c(F)c4F)cnc23)ccc1C(=O)NCC1CC[N+](C)(CCO)CC1 (stereo not shown) [Example C3, 4-[[3-[2,3-difluoro-4-[1-(2-methoxyethyl)-3-methyl-pyrazol-4-yl]phenyl]imidazo[1,2-a]pyrazin-8-yl]amino]-2-ethyl-N-[[1-(2-hydroxyethyl)-1-methyl-piperidin-1-ium-4-yl]methyl]benzamide; formate]
14 | 460 nM | 410 nM | CCc1cc(Nc2nccn3c(-c4ccc(-c5cn(CCOC)nc5C)c(F)c4F)cnc23)ccc1C(=O)NCC1CC[N+](C)(CC2CNC2)CC1 (stereo not shown) [Example C4, N-[[1-(azetidin-3-ylmethyl)-1-methyl-piperidin-1-ium-4-yl]methyl]-4-[[3-[2,3-difluoro-4-[1-(2-methoxyethyl)-3-methyl-pyrazol-4-yl]phenyl]imidazo[1,2-a]pyrazin-8-yl]amino]-2-ethyl-benzamide; formic acid; formate]
15 | 680 nM | 1900 nM | CCc1cc(Nc2nccn3c(-c4ccc(-c5c(C)nn(CCOC)c5C)c(F)c4F)cnc23)ccc1C(=O)NCC1CC[N+](C)(CC(N)=O)CC1 (stereo not shown) [Example C5, N-[[1-(2-amino-2-oxo-ethyl)-1-methyl-piperidin-1-ium-4-yl]methyl]-4-[[3-[2,3-difluoro-4-[1-(2-methoxyethyl)-3,5-dimethyl-pyrazol-4-yl]phenyl]imidazo[1,2-a]pyrazin-8-yl]amino]-2-ethyl-benzamide; formate]
16 | 440 nM | 1200 nM | CCc1cc(Nc2nccn3c(-c4ccc(-c5c(C)nn(CCOC)c5C)c(F)c4F)cnc23)ccc1C(=O)NCC1CC[N+](C)(CCO)CC1 (stereo not shown) [Example C6, 4-[[3-[2,3-difluoro-4-[1-(2-methoxyethyl)-3,5-dimethyl-pyrazol-4-yl]phenyl]imidazo[1,2-a]pyrazin-8-yl]amino]-2-ethyl-N-[[1-(2-hydroxyethyl)-1-methyl-piperidin-1-ium-4-yl]methyl]benzamide; formate]
17 | 320 nM | 390 nM | CCc1cc(Nc2nccn3c(-c4ccc(-c5c(C)nn(CCOC)c5C)c(F)c4F)cnc23)ccc1C(=O)NCC1CC[N+](C)(CC2CNC2)CC1 (stereo not shown) [Example C7, N-[[1-(azetidin-3-ylmethyl)-1-methyl-piperidin-1-ium-4-yl]methyl]-4-[[3-[2,3-difluoro-4-[1-(2-methoxyethyl)-3,5-dimethyl-pyrazol-4-yl]phenyl]imidazo[1,2-a]pyrazin-8-yl]amino]-2-ethyl-benzamide; formic acid; formate]
